Assay results as given in patent publication US20070185161A1, “Bicyclic substituted indole-derivative steroid hormone nuclear receptor modulators” (priority 2004, published 2007).

biological target: T1, glucocorticoid receptor (A549 human lung epithelial cell extract) (Homo sapiens, UniProt P04150); assay: Glucocorticoid Receptor Binding Assay (Method 1); conditions: [3H]-dexamethasone, racemic mixture unless otherwise indicated, read-out: GR Ki (nM) Method 1
T1 construct: host or cells: A549 human lung epithelial cells
T1 sequence (P04150 1-777): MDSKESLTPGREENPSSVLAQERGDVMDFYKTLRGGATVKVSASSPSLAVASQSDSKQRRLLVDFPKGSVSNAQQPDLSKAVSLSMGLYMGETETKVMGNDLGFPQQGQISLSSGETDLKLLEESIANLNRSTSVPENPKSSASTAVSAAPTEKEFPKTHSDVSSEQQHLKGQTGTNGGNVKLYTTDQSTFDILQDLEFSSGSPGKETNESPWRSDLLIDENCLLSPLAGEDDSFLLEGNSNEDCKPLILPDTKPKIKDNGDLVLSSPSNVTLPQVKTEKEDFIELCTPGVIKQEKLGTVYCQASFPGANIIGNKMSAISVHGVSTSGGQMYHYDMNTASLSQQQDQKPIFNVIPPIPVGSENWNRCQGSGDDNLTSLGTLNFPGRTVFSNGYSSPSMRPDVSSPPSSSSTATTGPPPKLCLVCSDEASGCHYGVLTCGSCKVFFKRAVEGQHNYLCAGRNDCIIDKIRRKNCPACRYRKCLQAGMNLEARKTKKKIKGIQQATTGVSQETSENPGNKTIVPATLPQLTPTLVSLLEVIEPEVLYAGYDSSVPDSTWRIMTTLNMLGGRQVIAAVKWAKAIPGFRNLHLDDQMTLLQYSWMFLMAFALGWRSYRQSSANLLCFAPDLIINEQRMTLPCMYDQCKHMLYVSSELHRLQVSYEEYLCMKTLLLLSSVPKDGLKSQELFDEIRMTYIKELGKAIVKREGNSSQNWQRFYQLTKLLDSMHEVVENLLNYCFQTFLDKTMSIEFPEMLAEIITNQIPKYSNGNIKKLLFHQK
Experimental: A549 human lung epithelial cells (ATCC) are grown at a scale where gram quantity cell pellets are obtained. Harvested cell pellets are washed twice in cold phosphate buffered saline, centrifuged, and resuspended in cold assay binding buffer. The assay binding buffer consists of 10% glycerol, 50 mM Tris-HCl (pH7.2), 75 mM sodium chloride, 1.5 mM magnesium chloride, 1.5 mM EDTA, and 10 mM sodium molybdate. Cell suspensions were lysed via sonication, centrifuged, and the “extract” supernatant is snap frozen and stored at −80 C until needed.
GR binding assays are performed in a final volume of 140 ul containing 50-200 ug of A549 cell extract and 1.86 nM [^3H]-dexamethasone (Amersham) plus varying concentrations of test compound or vehicle. Briefly, assays are prepared at RT in 96-well Fisher 3356 plates, each well containing 100 ul of A549 cell extract, 20 ul of [^3H]-dexamethasone, and 20 ul of test compound/vehicle. Incubations are carried out at 4 degrees Celsius for 16 hours. After incubation, 70 ul of 3× dextran-coated charcoal solution is added to each reaction, mixed, and incubated for 8 minutes at RT. 3×-dextran-coated charcoal solution consists of 250 ml assay binding buffer, 3.75 g Norit A charcoal (Sigma), and 1.25 g dextran T-70 (Amersham). Charcoal/unbound radioligand complexes are removed by centrifugation of the plate and 140 ul of supernatant from each well is transferred to another 96 well Optiplate (Packard Instruments). 200 ul of Microscint-20 scinillant (Packard Instruments) is added to each well and amount of receptor bound radioligand is determined using Packard Instruments TopCount instrument.
IC50 values, defined as the concentration of test compound required to decrease [^3H]-dexamethasone binding by 50%, are then determined. Ki values for each respective test compound can then be calculated by application of the Cheng-Prusoff equation as described in Cheng et al., Relationship Between The Inhibition Constant (Ki) and The Concentration of Inhibitor Which Causes 50% Inhibition (IC50) of an Enzymatic Reaction, Biochem. Pharmacol., 22: 3099-31088; (1973).

Structure (SMILES) | Ki [nM]
CC1(c2c[nH]c3c(NS(C)(=O)=O)cccc23)CCOc2ccc(F)cc21 (stereo not drawn) [Example 33, N-[3-(6-Fluoro-4-methyl-chroman-4-yl)-1H-indol-7-yl]-methanesulfonamide] | ≤ 500
CC1(c2c[nH]c3c(NS(C)(=O)=O)cccc23)CCCc2ccccc21 (stereo not drawn) [Example 26, N-[3-(1-Methyl-1,2,3,4-tetrahydro-naphthalen-1-yl)-1H-indol-7-yl]-methanesulfonamide] | ≤ 500
CC1(c2c[nH]c3c(NS(C)(=O)=O)cccc23)CCSc2ccccc21 (stereo not drawn) [Example 37, N-[3-(4-Methyl-thiochroman-4-yl)-1-indol-7-yl]-methanesulfonamide] | ≤ 500
CCC1(c2c[nH]c3c(NS(C)(=O)=O)cccc23)CCc2cc(F)cc(F)c21 (racemic) [Example 23, N-[3-(1-Ethyl-5,7-difluoro-indan-1-yl)-1H-indol-7-yl]-methanesulfonamide] | ≤ 500
CC1(c2c[nH]c3c(NS(C)(=O)=O)cccc23)CCc2ccccc21 (stereo not drawn) [Example 20, N-[3-(1-Methyl-indan-1-yl)-1H-indol-7-yl]-methanesulfonamide] | ≤ 500
CCC1(c2c[nH]c3c(NS(C)(=O)=O)cccc23)CCCc2cc(F)cc(F)c21 (racemic) [Example 31, N-[3-(1-Ethyl-6,8-difluoro-1,2,3,4-tetrahydro-naphthalen-1-yl)-1H-indol-7-yl]-methanesulfonamide] | ≤ 500
CC1(c2c[nH]c3c(NS(C)(=O)=O)cccc23)CCc2cc(F)ccc21 (racemic) [Example 21, N-[3-(5-Fluoro-1-methyl-indan-1-yl)-1H-indol-7-yl]-methanesulfonamide] | ≤ 500
CCC1(c2c[nH]c3c(NS(C)(=O)=O)cccc23)CCc2cc(F)ccc21 (racemic) [Example 1, N-[3-(1-ethyl-5-fluoro-indan-1-yl)-1H-indol-7-yl]-methanesulfonamide] | ≤ 500
CC1(c2c[nH]c3c(NS(C)(=O)=O)cccc23)CCc2cc(-n3cccn3)ccc21 (stereo not drawn) [Example 24, N-[3-(1-Methyl-5-pyrazol-1-yl-indan-1-yl)-1H-indol-7-yl]-methanesulfonamide] | ≤ 500
CC1(c2c[nH]c3c(NS(C)(=O)=O)cccc23)CCCCc2ccccc21 (stereo not drawn) [Example 38, N-[3-(5-Methyl-6,7,8,9-tetrahydro-5H-benzocyclohepten-5-yl)-1H-indol-7-yl]-methanesulfonamide] | ≤ 500
CCC1(c2c[nH]c3c(NS(C)(=O)=O)cccc23)CCCc2cc(F)ccc21 (racemic) [Example 29, N-[3-(1-Ethyl-6-fluoro-1,2,3,4-tetrahydro-naphthalen-1-yl)-1H-indol-7-yl]-methanesulfonamide] | ≤ 500
CS(=O)(=O)Nc1cccc2c(C3CCCc4ccccc43)c[nH]c12 (stereo not drawn) [Example 25, N-[3-(1,2,3,4-Tetrahydro-naphthalen-1-yl)-1H-indol-7-yl]-methanesulfonamide] | ≤ 500
CCC1(c2c[nH]c3c(NS(C)(=O)=O)cccc23)CCCc2ccccc21 (stereo not drawn) [Example 27, N-[3-(1-Ethyl-1,2,3,4-tetrahydro-naphthalen-1-yl)-1H-indol-7-yl]-methanesulfonamide] | ≤ 500
CC1(c2c[nH]c3c(NS(C)(=O)=O)cccc23)CCCc2cc(F)ccc21 (racemic) [Example 28, N-[3-(6-Fluoro-1-methyl-1,2,3,4-tetrahydro-naphthalen-1-yl)-1H-indol-7-yl]-methanesulfonamide] | ≤ 500
CC1(c2c[nH]c3c(NS(C)(=O)=O)cccc23)CCOc2ccccc21 (stereo not drawn) [Example 32, N-[3-(4-Methyl-chroman-4-yl)-1H-indol-7-yl]-methanesulfonamide] | ≤ 500

Further lines, results first:

Ki [nM] | Structure (SMILES)
≤ 500 | CCC1(c2c[nH]c3c(NS(C)(=O)=O)cccc23)CCc2cc(F)ccc21 (single isomer, unassigned) [Example 1A, N-[3-(1-ethyl-5-fluoro-indan-1-yl)-1H-indol-7-yl]-methanesulfonamide]
≤ 10000 | CCC1(c2c[nH]c3c(NS(C)(=O)=O)cccc23)CCc2cc(F)cc(F)c21 (single isomer, unassigned) [Example 23B, N-[3-(1-Ethyl-5,7-difluoro-indan-1-yl)-1H-indol-7-yl]-methanesulfonamide]
≤ 500 | CCC1(c2c[nH]c3c(NS(C)(=O)=O)cccc23)CCCc2cc(F)ccc21 (single isomer, unassigned) [Example 29A, N-[3-(1-Ethyl-6-fluoro-1,2,3,4-tetrahydro-naphthalen-1-yl)-1H-indol-7-yl]-methanesulfonamide]
≤ 500 | CC1(c2c[nH]c3c(NS(C)(=O)=O)cccc23)CCCc2cc(F)ccc21 (single isomer, unassigned) [Example 28A, N-[3-(6-Fluoro-1-methyl-1,2,3,4-tetrahydro-naphthalen-1-yl)-1H-indol-7-yl]-methanesulfonamide]
≤ 500 | CC1(c2c[nH]c3c(NS(C)(=O)=O)cccc23)CCCc2cc(F)ccc21 (single isomer, unassigned) [Example 28B, N-[3-(6-Fluoro-1-methyl-1,2,3,4-tetrahydro-naphthalen-1-yl)-1H-indol-7-yl]-methanesulfonamide]
≤ 500 | CCC1(c2c[nH]c3c(NS(C)(=O)=O)cccc23)CCCc2cc(F)ccc21 (single isomer, unassigned) [Example 29B, N-[3-(1-Ethyl-6-fluoro-1,2,3,4-tetrahydro-naphthalen-1-yl)-1H-indol-7-yl]-methanesulfonamide]
≤ 500 | CC1(c2c[nH]c3c(NS(C)(=O)=O)cccc23)CCc2cc(F)ccc21 (single isomer, unassigned) [Example 21A, N-[3-(5-Fluoro-1-methyl-indan-1-yl)-1H-indol-7-yl]-methanesulfonamide]
≤ 500 | CCC1(c2c[nH]c3c(NS(C)(=O)=O)cccc23)CCc2cc(F)cc(F)c21 (single isomer, unassigned) [Example 23A, N-[3-(1-Ethyl-5,7-difluoro-indan-1-yl)-1H-indol-7-yl]-methanesulfonamide]
≤ 500 | CC1(c2c[nH]c3c(NS(C)(=O)=O)cccc23)CCc2cc(F)ccc21 (single isomer, unassigned) [Example 21B, N-[3-(5-Fluoro-1-methyl-indan-1-yl)-1H-indol-7-yl]-methanesulfonamide]
